Test results reported in US10590422B2, “Anticancer therapeutic intervention” (PHYZAT BIOPHARMACEUTICALS, LDA., priority 2017, dated 2020).
d = 2'-deoxy (DNA); r = 2'-OH (RNA)

Key:
[1] = test system: human colon cancer HTC-116 cells; assay: Cell proliferation assay (calcein-AM) in human colon cancer HTC-116 cells; format: cell-based; settings: for cell proliferation / proliferation: treatment 6 h; for cell proliferation: 72 h exposure, FIG. 14; for proliferation: at 72 h, 0.17% Lipofectamine 2000 or 0.1% Injectin, FIGS. 19B and 20B
Procedure: (§1) SK-HEP-1, T24, HT-1080 and HCT-116 cell lines were maintained in a humidified atmosphere of 5% CO2 at 37° C. SK-HEP-1 cells were grown in RPMI-1640 (Sigma, St. Louis, Mo.) supplemented with 20% fetal bovine serum (FBS) (Gibco, UK), 100 U/mL penicillin G, 0.25 μg/mL amphotericin B, 100 μg/mL streptomycin (Gibco, UK), 25 mM sodium bicarbonate (Merck, Germany) and 25 mM N-2-hydroxyethylpiperazine-N′-2-ethanosulfonic acid (HEPES) (Sigma, St. Louis, Mo.). T24 and HT-1080 cells were grown, respectively, in Dulbecco's Modified Eagle's Medium (DMEM)—high glucose (Sigma, St. Louis, Mo.) and DMEM—low glucose (Sigma, St. Louis, Mo.), supplemented with 10% FBS (Gibco, UK), 100 U/mL penicillin G, 0.25 μg/mL amphotericin B, 100 μg/mL streptomycin (Gibco, UK), 25 mM sodium bicarbonate (Merck, Germany) and 25 mM HEPES (Sigma, St. Louis, Mo.). HCT-116 cells were grown in McCoy's 5A (Sigma, St. Louis, Mo.) supplemented with 10% FBS (Gibco, UK), 100 U/mL penicillin G, 0.25 μg/mL amphotericin B, 100 μg/mL streptomycin (Gibco, UK), 25 mM sodium bicarbonate (Merck, Germany) and 25 mM HEPES (Sigma, St. Louis, Mo.). For all cell lines the medium was changed every 2 days, and cells reached confluence 3-4 days after initial seeding. For subculturing, cells were dissociated with 0.25% trypsin-ethylenediaminetetraacetic acid (EDTA) (Sigma, St. Louis, Mo.), split 1:15 or 1:20 and subcultured in a 21-cm^2 growth area (Sarstedt, Germany).
Cell proliferation was measured using calcein-AM (Thermo Fisher Scientific, USA). The membrane permeant calcein-AM, a nonfluorescent dye, is taken up and converted by intracellular esterases to membrane impermeant calcein, which emits green fluorescence. Cells were plated in 96-well plates with black walls clear bottom (BD Biosciences, USA) and incubated 24 h under normal growth conditions. Cells were incubated with test items at 37° C., 5% C02. After the incubation period, serum and antibiotic was restored and cells were further incubated at normal conditions during 72 h. After treatment with test substances or vehicle, cells were washed twice with Hanks' medium and loaded with 2 μM calcein-AM in Hanks' medium, at 37° C. for 30 min. Fluorescence was measured at 485 nm excitation and 530 nm emission wavelengths in a microplate spectrofluorometer (Gemini EM, Molecular Devices). Nine consecutive fluorescence measurements are performed per well, to allow fluorescence readings in the whole area of the well, which was then considered for the calculation of mean fluorescence per well. To determine minimum staining for calcein (calceinmin), eight wells were treated with ethanol 30 min before calcein-AM addition. The percent cell number is calculated as [(calceinsample)/(calceincontrol)]×100.

[2] = test system: LAT1 mRNA; assay: LAT1 gene expression (RT-qPCR, relative to GAPDH) after LAT1 gene silencing in SK-HEP-1 cells; format: cell-based, human; settings: at 24 h; for LAT1 mRNA relative abundance: liver carcinoma SK-HEP-1 cells, 10 nM siRNA, treatment 6 h, Lipofectamine 2000, FIG. 4A
Procedure: as §1
(§2) Total RNA was isolated and purified using the SV Total RNA Isolation System (Promega, USA) according to manufacturer's instructions. RNA quality and concentration were verified in the NanoDrop ND1000 Spectrophotometer (Thermo Scientific, USA), and RNA integrity and genomic DNA contamination were evaluated by agarose gel electrophoresis. Total RNA (1 μg) was converted into cDNA using the Maxima Scientific First Strand cDNA Synthesis Kit for RT-qPCR (Thermo Scientific, USA), according to instructions. The following protocol was used: 1st step, 10 min at 25° C.; 2nd step, 15 min at 50° C.; 3rd step, 5 min at 85° C. cDNA was used for qPCR analysis using Maxima SYBR Green qPCR Master Mix (Thermo Scientific, USA) in the StepOnePlus instrument (Applied Biosystems, USA). QuantiTect Primer Assay for LAT1 and ASCT2 and for the endogenous control gene GAPDH (Quiagen, Germany) were used. The qPCR reaction was performed in 96-well PCR plates (Sarstedt, Germany) as follows: one cycle of 10 min at 95° C., followed by 40 PCR cycles at 95° C. 15 s and 60° C. 60 s. […] No template controls were always evaluated for each target gene. Quantification cycle (Cq) values were generated automatically by the StepOnePlus 2.3 Software and the ratio of the target gene was expressed in comparison to the endogenous control gene GAPDH.
(§3) Cells were plated in 24-well (Sarstedt, Germany) or 6-well plates (Sarstedt, Germany) or 96-well plates with black walls clear bottom (BD Biosciences, USA) and incubated 24 h under normal growth conditions. siRNAs against LAT1 and transfection agent were diluted at desired concentrations and mixed according to transfection agent manufacturer's instructions. The mixture was incubated 20 min at RT for siRNA-complex formation, after which it was added to the cells and incubated at 37° C., 5% CO2. After the incubation period, serum and antibiotic was restored and cells were further incubated at normal conditions for the desired time points until evaluation of LAT1 activity or LAT1 expression (immunoblotting and RT-qPCR).

[3] = test system: LAT1; assay: LAT1 activity: [^14C]-L-leucine uptake in SK-HEP-1 cells after LAT1 gene silencing; format: cell-based, human; settings: for inhibiting sodium-independent [^14C]-L-leucine transport: LAT1 siRNA, general statement, conditions not given; for [^14C]-L-leucine (0.25 μM) uptake at initial rate of uptake (1 min): liver carcinoma SK-HEP-1 cells, 10 nM siRNA, treatment 6 h, at 24 h and 48 h, 0.4% Lipofectamine 2000, FIGS. 5A and 5C
Procedure: Cells were plated in 24-well plates (Sarstedt, Germany) and grown until confluence was reached. On the day of the experiment, cell culture medium was aspirated and cells were preincubated for 15 min in Hanks' medium (NaCl 140 mM, KCl 5 mM, MgSO4.7H2O 0.8 mM, K2HPO4 0.33 mM, KH2PO4 0.44 mM, MgCl2.6H2O 1 mM, CaCl2) 0.025 mM, Tris-HCl 9.75 mM, pH 7.4). Uptake was initiated by addition of Hanks' medium with 0.25 μM [^14C]-L-leucine in the absence and in the presence of 3 mM unlabeled L-leucine. During preincubation and incubation cells were continuously shaken and maintained at 37° C. Uptake was terminated after 1 min by rapid removal of uptake solution by means of a vacuum pump connected to a Pasteur pipette, followed by a rapid wash with Hanks' medium. Subsequently, cells were solubilized in 0.1% vol/vol Triton X-100 (dissolved in 5 mM Tris-HCl, pH 7.4), and radioactivity was measured by liquid scintillation counting.
as §3

[4] = test system: ASCT2 mRNA; assay: ASCT2 gene expression (RT-qPCR) after ASCT2 gene silencing in human colon cancer HTC-116 cells; format: cell-based; settings: treatment 6 h, 72 h, 0.17% Lipofectamine 2000 or 0.1% Injectin, FIG. 20A
Procedure: as §1, §2
as §3, with “ASCT2” for “LAT1”

[5] = test system: LAT1 mRNA; assay: LAT1 gene expression (RT-qPCR) after LAT1 gene silencing in human colon cancer HTC-116 cells; format: cell-based; settings: treatment 6 h, 72 h, 0.17% Lipofectamine 2000 or 0.1% Injectin, FIG. 19A
Procedure: as §1, §2, §3

## 58/389/412 (sense UCGCCACCUACCUGCUCAATT; antisense UUGAGCAGGUAGGUGGCGAUG; siRNA; sense: sugars from the 5' end r19 d2, backbone not given here; antisense: RNA, backbone not given here)
[1]; 72 h, 0.1% Injectin, p<0.05
  Effect on cell proliferation compared with SEQ ID NO: 58: significantly greater
[1]; 0.1% Injectin
  cell proliferation: decreased

## 34 (AAGGACATCTTCTCCGTCATC; chemistry not given here) [compound 34]
[1]; 0.1% Injectin
  cell proliferation: decreased
[2]
  LAT1 mRNA relative abundance: decreased
[3]
  inhibiting sodium-independent [^14C]-L-leucine transport: particularly effective
  [^14C]-L-leucine (0.25 μM) uptake at initial rate of uptake (1 min): decreased

## 61/395/396 (chain 1 UGAACUGCUACAGCGUGAATT; chain 2 UUCACUCUGUAGCAGUUCACG; siRNA; chain 1: sugars from the 5' end r19 d2, backbone not given here; chain 2: RNA, backbone not given here)
[1]; 0.1% Injectin
  cell proliferation: decreased

## 267/399/400 (sense GGUCCUGUACCGUCCUCAATT; antisense UUGAGGACGGUACAGGACCTT; siRNA; sugars by position and backbone not given here; further chemistry not fully specified)
[1]; 0.1% Injectin
  cell proliferation: decreased
[1]
  proliferation: significantly decreased
[4]
  ASCT2 mRNA relative abundance: significantly decreased

## 58/389/390 (sense UCGCCACCUACCUGCUCAATT; antisense UUGAGCAGGUAGGUGGCGATT; siRNA; sugars by position and backbone not given here; further chemistry not fully specified)
[5]
  LAT1 mRNA relative abundance: significantly decreased
[1]; 72 h, 0.1% Injectin, p<0.05
  Effect on cell proliferation compared with SEQ ID NO: 58: significantly greater
[1]; 0.1% Injectin
  cell proliferation: decreased
[1]
  proliferation: significantly decreased

## 267/401/402 (sense GGUCCUGUACCGUCCUCAATT; antisense UUGAGGACGGUACAGGACCGG; siRNA; sense: sugars from the 5' end r19 d2, backbone not given here; antisense: RNA, backbone not given here)
[1]; 72 h, 0.1% Injectin, p<0.05
  Effect on cell proliferation compared with SEQ ID NO: 267/356/402: significantly greater
[1]; 0.1% Injectin
  cell proliferation: decreased

## 278/405/406 (sense CCACGGUCGCCUCUGAGAATT; antisense UUCUCAGAGGCGACCGUGGTT; siRNA; sugars by position and backbone not given here; further chemistry not fully specified)
[1]; 72 h, 0.1% Injectin, p<0.05
  Effect on cell proliferation compared with SEQ ID NO: 278/367/408: significantly greater
[1]; 0.1% Injectin
  cell proliferation: decreased
[1]
  proliferation: significantly decreased
[4]
  ASCT2 mRNA relative abundance: significantly decreased

## 61 (CGTGAACTGCTACAGCGTGAA; chemistry not given here) [compound 61]
[2]
  LAT1 mRNA relative abundance: decreased
[3]
  inhibiting sodium-independent [^14C]-L-leucine transport: particularly effective
  [^14C]-L-leucine (0.25 μM) uptake at initial rate of uptake (1 min): decreased

## 278/407/408 (sense CCACGGUCGCCUCUGAGAATT; antisense UUCUCAGAGGCGACCGUGGCA; siRNA; sense: sugars from the 5' end r19 d2, backbone not given here; antisense: RNA, backbone not given here)
[1]; 72 h, 0.1% Injectin, p<0.05
  Effect on cell proliferation compared with SEQ ID NO: 278/367/408: significantly greater
[1]; 0.1% Injectin
  cell proliferation: decreased

## 58 (CTTCGCCACCTACCTGCTCAA; chemistry not given here) [compound 58]
[1]; 72 h, 0.1% Injectin, p<0.05
  Effect on cell proliferation compared with SEQ ID NO: 34: significantly greater
[2]; SK-HEP-1 cells, 10 nM, p<0.05
  Effect on LAT1 mRNA relative abundance compared with SEQ ID NO: 34: significantly greater
[2]
  LAT1 mRNA relative abundance: decreased
[3]
  inhibiting sodium-independent [^14C]-L-leucine transport: particularly effective
  [^14C]-L-leucine (0.25 μM) uptake at initial rate of uptake (1 min): decreased
[3]; SK-HEP-1 cells, 10 nM, p<0.05
  Effect on [^14C]-L-leucine uptake compared with SEQ ID NO: 34: significantly greater

## 61/393/394 (chain 1 UGAACUGCUACAGCGUGAATT; chain 2 UUCACUCUGUAGCAGUUCATT; siRNA; sugars by position and backbone not given here; further chemistry not fully specified)
[5]
  LAT1 mRNA relative abundance: significantly decreased
[1]; 0.1% Injectin
  cell proliferation: decreased
[1]
  proliferation: significantly decreased
